Results as given in patent publication US12037322B2, “AHR agonists” (Eli Lilly and Company, priority 2021, dated 2024).
pEC50: −log10 of the molar value.

Molecular target: T1, hAHR (Homo sapiens, UniProt P35869)
T1 construct: expressed in transfected cells
T1 sequence (P35869 11-848): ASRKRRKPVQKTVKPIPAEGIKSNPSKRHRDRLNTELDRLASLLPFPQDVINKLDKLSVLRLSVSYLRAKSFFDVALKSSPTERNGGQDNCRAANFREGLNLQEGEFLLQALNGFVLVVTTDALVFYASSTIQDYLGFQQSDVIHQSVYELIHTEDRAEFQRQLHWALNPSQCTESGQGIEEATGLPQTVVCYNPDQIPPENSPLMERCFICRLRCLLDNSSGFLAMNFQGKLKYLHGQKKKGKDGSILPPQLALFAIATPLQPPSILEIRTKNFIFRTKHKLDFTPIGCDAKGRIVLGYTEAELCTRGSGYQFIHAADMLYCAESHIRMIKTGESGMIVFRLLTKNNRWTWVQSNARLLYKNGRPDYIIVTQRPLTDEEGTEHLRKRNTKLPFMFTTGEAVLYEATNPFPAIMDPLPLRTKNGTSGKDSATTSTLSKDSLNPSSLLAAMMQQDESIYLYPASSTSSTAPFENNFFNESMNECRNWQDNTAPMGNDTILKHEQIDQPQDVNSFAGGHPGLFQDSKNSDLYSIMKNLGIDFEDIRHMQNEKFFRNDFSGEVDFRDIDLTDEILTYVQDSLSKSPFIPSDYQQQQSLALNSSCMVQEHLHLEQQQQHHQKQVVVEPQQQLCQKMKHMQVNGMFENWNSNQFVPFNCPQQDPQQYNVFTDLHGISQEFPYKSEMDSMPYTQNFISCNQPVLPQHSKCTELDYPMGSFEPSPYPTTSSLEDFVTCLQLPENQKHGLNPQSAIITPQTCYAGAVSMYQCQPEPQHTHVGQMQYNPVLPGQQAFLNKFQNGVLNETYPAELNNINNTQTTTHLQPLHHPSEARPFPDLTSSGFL
Test: hAHR nuclear translocation assay
Type: cell-based
Conditions: Jump-In T-REx HEK293 cells expressing AhR-EGFP; 45 min incubation; ratio of EGFP intensity in nuclear over cytosol; 20-point curve
Method: Stable cell lines were established using Jump-In™ T-REx™ HEK293 Retargeting Kit (Life Technologies). hAhR cDNA was cloned into the pJTI R4 CMV-TO EGFP vector. The EGFP was cloned to the C-terminal of AHR to form AhR-EGFP chimera. The pJTI R4 CMV-TO AhR-EGFP vector was transfected using FuGENE® HD into Jump-In™ T-REx™ HEK293 cells. Transfected cells were selected using 2.5 mg/ml G418 for 10 to 14 days, then expanded, harvested, and suspended in freeze media (FBS with 8% DMSO) at 2×10^7 cells/mL, and aliquots were stored in liquid nitrogen. One day before the assay date, cells were thawed and resuspended in DMEM with 5% FBS in the presence of 1 μg/mL Doxycycline and plated into ploy-L-Lysine coated […]-384 ULTRA Microplates (Perkin Elmer) at 12,000 to 15,000 cells per well and incubated at 37° C. and 5% CO2 overnight. On the assay date, compound was serially diluted (1:2) into 384-well nunc plates with DMSO using acoustic dispensing (ECHO). The dose response was a 20-point curve. Compound was resuspended in 40 μL of DMEM plus 0.1% BSA. The culture media was damped and 25 μL of DMEM plus 0.1% BSA was added, then 25 μL of compound in DMEM plus 0.1% BSA was added into cell plates. Cells were incubated with compounds at 37° C. and 5% CO2 for 45 min.
The final DMSO concentration was 0.2%. The media was damped after 45 minutes incubation. The cells were fixed with 40 μL of cold MeOH (−20° C.) for 20 min. The MeOH was damped and 50 μL of DPBS containing 1 μg/mL Hochst was added into the cell plates. The intensity of EGFP was quantitated by using OPERA PHENIX® or Operetta™ high content image system (Perkin Elmer) with 20× Water Objective and five field per well. The ratio of EGFP fluorescent intensity in nuclear over cytosol was analyzed using a 4-parameter nonlinear logistic equation to determine the potency of AhR agonists.

pEC50	Compound
8.34	CC1CCc2c1cc(C(=O)Nc1ccc(C(F)(F)F)nc1)c(=O)n2C (stereo not shown) [Example 6, 1,5-Dimethyl-2-oxo-N-[6-(trifluoromethyl)-3-pyridyl]-6,7-dihydro-5H-cyclopenta[b]pyridine-3-carboxamide]
8.54	CC1CCc2c1c(O)c(C(=O)Nc1ccccn1)c(=O)n2C (single isomer, unassigned) [Example 90, 4-Hydroxy-1,5-dimethyl-2-oxo-N-(2-pyridyl)-6,7-dihydro-5H-cyclopenta[b]pyridine-3-carboxamide]
7.19	C[C@H]1CCc2c1cc(C(=O)Nc1nnc(C(F)(F)F)o1)c(=O)n2C [Example 11, (5S)-1,5-Dimethyl-2-oxo-N-[5-(trifluoromethyl)-1,3,4-oxadiazol-2-yl]-6,7-dihydro-5H-cyclopenta[b]pyridine-3-carboxamide]
7.99	CC(C)CCNC(=O)c1c(O)c2c(n(C)c1=O)CCCC2 [Example 111, 4-Hydroxy-N-isopentyl-1-methyl-2-oxo-5,6,7,8-tetrahydroquinoline-3-carboxamide]
8.44	CC1CCc2c1cc(C(=O)Nc1ccc(C(F)(F)F)cn1)c(=O)n2C (single isomer, unassigned) [Example 59, 1,5-Dimethyl-2-oxo-N-[5-(trifluoromethyl)-2-pyridyl]-6,7-dihydro-5H-cyclopenta[b]pyridine-3-carboxamide]
8.35	CC1CCc2c1c(O)c(C(=O)Nc1ncco1)c(=O)n2C (single isomer, unassigned) [Example 35, 4-Hydroxy-1,5-dimethyl-N-oxazol-2-yl-2-oxo-6,7-dihydro-5H-cyclopenta[b]pyridine-3-carboxamide]
8.01	CC1CCc2c1cc(C(=O)Nc1ccc(F)cn1)c(=O)n2C (stereo not shown) [Example 2, N-(5-Fluoro-2-pyridyl)-1,5-dimethyl-2-oxo-6,7-dihydro-5H-cyclopenta[b]pyridine-3-carboxamide]
8.63	CC1CCc2c1c(O)c(C(=O)Nc1cnsc1)c(=O)n2C (single isomer, unassigned) [Example 40, 4-Hydroxy-N-isothiazol-4-yl-1,5-dimethyl-2-oxo-6,7-dihydro-5H-cyclopenta[b]pyridine-3-carboxamide]
8.69	Cn1c2c(cc(C(=O)Nc3ccc(F)cn3)c1=O)CC(C)(C)CC2 [Example 49, N-(5-Fluoro-2-pyridyl)-1,6,6-trimethyl-2-oxo-7,8-dihydro-5H-quinoline-3-carboxamide]
8.87	C[C@@H]1CCc2c1cc(C(=O)Nc1ccns1)c(=O)n2C [Example 16, (5R)-N-Isothiazol-5-yl-1,5-dimethyl-2-oxo-6,7-dihydro-5H-cyclopenta[b]pyridine-3-carboxamide]
6.63	CC1Cc2c(O)c(C(=O)Nc3ncccn3)c(=O)n(C)c2C1 (single isomer, unassigned) [Example 83, 4-Hydroxy-1,6-dimethyl-2-oxo-N-pyrimidin-2-yl-6,7-dihydro-5H-cyclopenta[b]pyridine-3-carboxamide]
8.58	CC1CCc2c1c(O)c(C(=O)Nc1cnsc1)c(=O)n2C (single isomer, unassigned) [Example 41, 4-Hydroxy-N-isothiazol-4-yl-1,5-dimethyl-2-oxo-6,7-dihydro-5H-cyclopenta[b]pyridine-3-carboxamide]
9.00	CC1CCc2c1c(O)c(C(=O)Nc1ccsn1)c(=O)n2C (single isomer, unassigned) [Example 38, 4-Hydroxy-N-isothiazol-3-yl-1,5-dimethyl-2-oxo-6,7-dihydro-5H-cyclopenta[b]pyridine-3-carboxamide]
8.98	C[C@H]1CCc2c1cc(C(=O)Nc1ccsn1)c(=O)n2C [Example 19, (5S)-N-Isothiazol-3-yl-1,5-dimethyl-2-oxo-6,7-dihydro-5H-cyclopenta[b]pyridine-3-carboxamide]
7.96	CC1CCc2c1cc(C(=O)Nc1ncccn1)c(=O)n2C (single isomer, unassigned) [Example 80, 1,5-Dimethyl-2-oxo-N-pyrimidin-2-yl-6,7-dihydro-5H-cyclopenta[b]pyridine-3-carboxamide]
9.30	Cn1c2c(cc(C(=O)Nc3ccccc3)c1=O)CCCC2 [Example 104, 1-Methyl-2-oxo-N-phenyl-5,6,7,8-tetrahydroquinoline-3-carboxamide]
8.28	C[C@@H]1CCc2c1cc(C(=O)Nc1cnsc1)c(=O)n2C [Example 20, (5R)-N-Isothiazol-4-yl-1,5-dimethyl-2-oxo-6,7-dihydro-5H-cyclopenta[b]pyridine-3-carboxamide]
6.40	CC1CCc2c1cc(C(=O)NC1CCCC1)c(=O)n2C (single isomer, unassigned) [Example 60, N-Cyclopentyl-1,5-dimethyl-2-oxo-6,7-dihydro-5H-cyclopenta[b]pyridine-3-carboxamide]
8.44	CC1CCc2c1cc(C(=O)Nc1ccc(C(F)(F)F)cn1)c(=O)n2C (single isomer, unassigned) [Example 58, 1,5-Dimethyl-2-oxo-N-[5-(trifluoromethyl)-2-pyridyl]-6,7-dihydro-5H-cyclopenta[b]pyridine-3-carboxamide]
8.39	C[C@H]1CCc2c1cc(C(=O)Nc1ccccn1)c(=O)n2C [Example 22, (5S)-1,5-Dimethyl-2-oxo-N-(2-pyridyl)-6,7-dihydro-5H-cyclopenta[b]pyridine-3-carboxamide]
8.54	CC1CCc2c1c(O)c(C(=O)Nc1ccc(F)cn1)c(=O)n2C (stereo not shown) [Example 26, N-(5-Fluoro-2-pyridyl)-4-hydroxy-1,5-dimethyl-2-oxo-6,7-dihydro-5H-cyclopenta[b]pyridine-3-carboxamide]
8.74	CC1CCc2c1cc(C(=O)Nc1nccs1)c(=O)n2C (single isomer, unassigned) [Example 62, 1,5-Dimethyl-2-oxo-N-thiazol-2-yl-6,7-dihydro-5H-cyclopenta[b]pyridine-3-carboxamide]
8.66	CC1CCc2c1c(O)c(C(=O)Nc1ccc(F)cn1)c(=O)n2C (single isomer, unassigned) [Example 100, N-(5-Fluoro-2-pyridyl)-4-hydroxy-1,5-dimethyl-2-oxo-6,7-dihydro-5H-cyclopenta[b]pyridine-3-carboxamide]
7.72	C[C@@H]1CCc2c1cc(C(=O)Nc1ncco1)c(=O)n2C [Example 74, (5R)-1,5-Dimethyl-N-oxazol-2-yl-2-oxo-6,7-dihydro-5H-cyclopenta[b]pyridine-3-carboxamide]
8.85	CC1CCc2c1cc(C(=O)Nc1ncc(C(F)(F)F)cn1)c(=O)n2C (stereo not shown) [Example 8, 1,5-Dimethyl-2-oxo-N-[5-(trifluoromethyl)pyrimidin-2-yl]-6,7-dihydro-5H-cyclopenta[b]pyridine-3-carboxamide]
8.19	COc1cnc(NC(=O)c2c(O)c3c(n(C)c2=O)CCC3C)nc1 (stereo not shown) [Example 27, 4-Hydroxy-N-(5-methoxypyrimidin-2-yl)-1,5-dimethyl-2-oxo-6,7-dihydro-5H-cyclopenta[b]pyridine-3-carboxamide]
8.10	C[C@@H]1CCc2c1cc(C(=O)Nc1ncc(F)cn1)c(=O)n2C [Example 12, (5R)-N-(5-Fluoropyrimidin-2-yl)-1,5-dimethyl-2-oxo-6,7-dihydro-5H-cyclopenta[b]pyridine-3-carboxamide]
7.95	Cn1c2c(cc(C(=O)Nc3ccc(F)cn3)c1=O)CC(C)(C)C2 [Example 48, N-(5-Fluoro-2-pyridyl)-1,6,6-trimethyl-2-oxo-5,7-dihydrocyclopenta[b]pyridine-3-carboxamide]
